Source: US4156427A, “Injectable male animal sterilant for selectively controlling the function of testes” (priority 1977, dated 1979)
Like-named read-outs stand apart in the source and are kept apart here.

How the values were obtained:
sexually mature cats = test: Example 16: injection into testes of sexually mature cats; type: in vivo, cat
Experimental: Those animals in Group I were injected in each testis with 0.1 ml of water.
The testosterone level for the cats in Group I was 6.8±0.2 ng/ml, for those in Group II 4.1±0.3 ng/ml and less than 1 ng/ml for those in Group III.

weaned male rats = test: Example 12: injection into testes of weaned 30-day old rats; conditions: 60 days, per testis: II 5.0 mg ZnSO4.7H2 O, III 5.0 mg tannic acid, IV 2.5 mg + 2.5 mg
Experimental: Two hundred 30-day old male rats, just weaned, were divided into four groups, Group I being a control. The rats in Group I were injected with 0.05 ml of water into each testis. The rats in Group II were similarly injected with 5.0 mg of ZnSO4.7H2 O, those in Group III with 5.0 mg of tannic acid and those in Group IV with a mixture (Kastrin) containing 2.5 mg tannic acid and 2.5 mg ZnSO4.7H2 O.
Forty of the animals were sacrificed 60 days after treatment. The others were watched for a year.

[1] = tested on: litter mate dogs, 8 weeks old; test: Example 13: injection into testes of 8 weeks old litter mate dogs; conditions: Group II, 20.0 mg tannic acid buffered to pH 6.5 into each testis
Experimental: Thirty-eight litter mate dogs, 8 weeks old, were divided into four groups. The dogs in Group I were a control and were injected with 0.2 ml of water into each testis. The animals in Group II were similarly treated in each testis with 20.0 mg of tannic acid buffered to a pH of 6.5. Those in Group III were treated with 20 mg of ZnSO4.7H2 O and those in Group IV with a mixture of 10 mg of tannic acid and 10 mg of ZnSO4.7H2 O.

purebred Angus bulls = test: Example 17: injection into testes of Angus bulls, rate of gain and carcass quality; type: in vivo, cattle; conditions: for BODY WEIGHT Final: after one year; for BODY WEIGHT Final / % Fat / % Protein / Rate of Gain: III 500.0 mg tannic acid, IV 500.0 mg ZnSO4.7H2 O, V 250.0 mg + 250.0 mg; for % Fat / % Protein / Rate of Gain / rate of gain vs surgically castrated animals: one year; for Rate of Gain: surgically castrated 1.29; for rate of gain vs surgically castrated animals: vs Group II surgically castrated
Experimental: Ten purebred Angus bulls weighing an average of 400 pounds were divided into five groups, Group I being a control. Each animal in Group I was injected with 5.0 ml of water in each testis. Those in Group II were surgically castrated. The animals in Group III were injected with 500.0 mg of tannic acid, those in Group IV with 500.0 mg of ZnSO4.7H2 O and those in Group V with 250.0 mg of tannic acid and 250.0 mg of ZnSO4.7H2 O.
The animals were fed concentrate and grazed. After one year, they were sacrificed.

human spermatozoa = conditions: cited from earlier work
[2] = tested on: male reproduction of sexually mature rats; conditions: rat
Experimental: This example illustrates the effect of zinc sulfate on male reproduction of sexually mature rats when administered orally.
Three hundred sexually mature rats were divided into three groups, Group I being a control. Group II rats were treated daily with 15.0 mg ZnSO4.7H2 O and Group III rats with 50.0 mg, both groups receiving said treatment for 30 days.
(§1) ZnSO4 solution was made up from ZnSO4 . 7H2 O salt.
Therefore 15 and 50 mgZnSO4 . 7H2 O correspond to 8.42 mg, 28.0

[3] = tested on: male reproduction of sexually mature rats
spermatogenesis / testis = test: General findings: arrest of spermatogenesis and diffusion of zinc after injection into testis; type: in vivo; conditions: astringent zinc sulfate, injected in testis
Experimental: Recommended dosages, as above mentioned, depend upon the size and species of the animal and upon the desired result. Recommended dosages for sterilization of adult dogs weighing less than 10 kg is 0.25 ml into each testis of a mixture containing between 10.0 and 25.0 mg of tannic acid and 25.0 mg of ZnSO4.7H2 O. For dogs weighing between 10 and 15 kg, the recommended dose is 0.5 ml into each testis of a mixture containing between 10.0 and 50.0 mg of tannic acid and 50.0 mg of ZnSO4.7H2O. For those dogs weighing between 16 and 20 kg, the recommended dose is 1.0 ml into each testis of a mixture containing between 50.0 and 100.0 mg of tannic acid and between 75.0 and 100.0 mg of ZnSO4.7H2 O. For dogs weighing over 20 kg, the recommended dose is 1.0 ml in each testis of a mixture containing between 50.0 and 125.0 mg of tannic acid and 125.0 mg of ZnSO4.7H2 O.
In the case of puppies between 6 and 8 weeks of age, the recommended dose is 0.05 ml into each testis of a mixture containing 2.0 mg of tannic acid and 5.0 mg of ZnSO4.7H2 O. For puppies over 8 weeks but not sexually mature, the dose is preferably 0.08 ml into each of the testes of a mixture containing 7.0 mg of tannic acid and 7.0 mg of ZnSO4.7H2 O. For adult cats, the recommended dose is 0.1 ml into each testis of a mixture containing 10.0 mg of tannic acid and 10.0 mg of ZnSO4.7H2 O. […]

[4] = tested on: male reproduction of sexually mature rats; test: Example 5: zinc sulfate injected into the testes of sexually mature rats; type: in vivo; conditions: rat, 0.5, 2.5 and 5.0 mg into the testes
Source text: Such injection was made into the midline of each testis with a sterilized needle.

[5] = tested on: male reproduction in sexually mature rats; conditions: rat
Experimental: One hundred sexually mature rats were divided into two groups, Group I being a control. Each of the Group II rats was injected with 25 mg ZnSO4.7H2 O into each side of the scrotum.
*Animals were sacrificed 60 days after

[6] = tested on: male reproduction of sexually mature rats; conditions: rat; for Testosterone ng/ml serum / Epididymis weight / Prostate weight / Seminal Vesicles weight / Testes weight: i.p.; for Epididymis weight / Prostate weight / Seminal Vesicles weight / Testes weight: sacrificed at 60 days
Experimental: This example illustrates the effect of zinc sulfate on male reproduction of sexually mature rats when administered intraperitoneally.
Four hundred sexually mature rats were divided into four groups, Group I being a control. The rats in Groups II, III and IV were treated daily for 30 days, respectively, with 0.5, 1.0 and 5.0 mg ZnSO4.7H2 O. At the end of 60 days, as in Example 1, the rats were sacrificed.
as §1
Therefore 0.5 mg, 1.0 mg and 5.0 mg ZnSO4 . 7H2 O correspond to
0.28 mg, 0.56 mg and 2.81 mg ZnSO4 respectively.

[7] = oral, 15 mg ZnSO4.7H2 O daily 30 days
[8] = oral, 50 mg ZnSO4.7H2 O daily 30 days
[9] = oral, 15.0 and 50.0 mg daily 30 days
[10] = rat, 0.5, 2.5 and 5.0 mg into the vas deferens, 60 days
[11] = 25 mg ZnSO4.7H2 O into each scrotum, 60 days after
[12] = 25 mg ZnSO4.7H2 O into each scrotum, 60 days after, p<0.001 vs control
[13] = 25 mg into each side of the scrotum
[14] = 25 mg into each side of the scrotum, FIGS. 1 and 2
[15] = 0.5 mg ZnSO4.7H2 O daily 30 days
[16] = 1.0 mg ZnSO4.7H2 O daily 30 days
[17] = 5.0 mg ZnSO4.7H2 O daily 30 days
[18] = i.p., 0.5, 1.0 and 5.0 mg daily 30 days

tannic acid
sperm count (sexually mature cats; cats, one week, per testis II 10.0 mg tannic acid pH 6.8, III 5.0 mg tannic acid + 5.0 mg ZnSO4.7H2 O, control 230×10^6 /ml): zero | behaviour / male aggressiveness (sexually mature cats; cats, II 10.0 mg tannic acid, III 5.0 mg + 5.0 mg per testis): acted normally | testosterone level (sexually mature cats; cats, II 10.0 mg tannic acid, III 5.0 mg + 5.0 mg per testis, control 6.8±0.2 ng/ml): 4.1 ± 0.3 ng/mL | weight gain (sexually mature cats; in vivo): None of the animals in Groups II or III gained any more weight than those in Group I | Epididymis weight (weaned male rats): 0.31 ± 0.07 gm | Prostate weight (weaned male rats): 0.10 ± 0.05 gm | Seminal Vesicles Wt. (weaned male rats): 0.14 ± 0.04 gm | Testes weight (weaned male rats): 0.46 ± 0.12 gm | muscular appearance [1]: better muscular appearance than those in the control group | BODY WEIGHT Final (purebred Angus bulls): 826 | % Fat (purebred Angus bulls): 18.0% | % Protein (purebred Angus bulls): 18.3% | Rate of Gain (purebred Angus bulls): 1.40 lbs/day | rate of gain vs surgically castrated animals (purebred Angus bulls): faster rate of gain than the surgically castrated animals

[Zn] [zinc]
toxic effects on human spermatozoa (human spermatozoa; under certain conditions): can exert toxic effects on human spermatozoa | sperm motility (human spermatozoa; zinc 5 μg/ml (0.075 mM), without albumin): markedly inhibited sperm motility | sperm motility (human spermatozoa; zinc 50 μg/ml (0.75 mM), with 4% albumin): only slightly inhibited sperm motility

O=S(=O)([O-])[O-].[Zn+2] [zinc sulfate]
Epididymis weight (weaned male rats): 0.10 ± 0.03 gm | Prostate weight (weaned male rats): 0.05 ± 0.02 gm | Seminal Vesicles Wt. (weaned male rats): 0.05 ± 0.02 gm | Testes weight (weaned male rats): 0.21 ± 0.04 gm | Epididymis weight [2, 7]: 0.94 ± 0.03 gm | Prostate weight [2, 7]: 0.44 ± 0.03 gm | Seminal Vesicles weight [2, 7]: 0.73 ± 0.04 gm | Testes weight [2, 7]: 2.88 ± 0.17 gm | Testosterone ng/ml serum [2, 7]: 6.25 ± 1.68 ng/mL | Epididymis weight [2, 8]: 0.91 ± 0.04 gm | Prostate weight [2, 8]: 0.42 ± 0.02 gm | Seminal Vesicles weight [2, 8]: 0.78 ± 0.04 gm | Testes weight [2, 8]: 2.94 ± 0.13 gm | Testosterone ng/ml serum [2, 8]: 6.57 ± 0.58 ng/mL | histological changes in the male reproductive organs [2, 9]: No histological changes were observed | testosterone levels [2, 9]: no change was noted in testosterone levels | weight of the testes, epididymis, prostate or seminal vesicles [2, 9]: no significant change in the weight of the testes, epididymis, prostate or seminal vesicles | impregnation of females in heat ([2]; treated orally, mated with females in heat): impregnated the females | impregnation of females ([3]; rat, 5.0 mg ZnSO4.7H2 O in the vas deferens, mated with females in heat): did not impregnate the females | effect on spermatogenesis [3, 10]: no effect on spermatogenesis | weight of the testes, prostate or seminal vesicles [3, 10]: no significant change in the weight of the testes, prostate or seminal vesicles | pregnancy of females mated ([3]; rat, 0.5 and 2.5 mg ZnSO4.7H2 O in the vas deferens, mated with females in heat): Pregnancy also occurred | diffusion of zinc beyond epididymis and prostate (spermatogenesis / testis): no diffusion beyond that | diffusion of zinc to the epididymis and prostate (spermatogenesis / testis): some diffusion of the zinc to the epididymis and prostate | testosterone level [4]: decrease in the testosterone level | pregnancy of females mated ([4]; mated with females in heat): No pregnancy resulted | weight of the male reproductive organs ([4]; reduction increased with the dose): significant reduction in the weight of the male reproductive organs | Prostate weight [5, 11]: 0.82 ± 0.06 gm | Seminal Ves weight [5, 11]: 1.20 ± 0.02 gm | Epididymis weight [5, 12]: 0.56 ± 0.06 gm | Testes weight [5, 12]: 1.42 ± 0.09 gm | weight of the prostate and seminal vesicles [5, 13]: no difference, however, in the weight of the prostate and seminal vesicles | weight of the testes and epididymis [5, 13]: significant reduction in the weight of the testes and epididymis | pregnancy of females mated ([5]; 25 mg into each side of the scrotum, mated with females in heat): No pregnancy resulted | testosterone levels ([5]; 25 mg into each side of the scrotum, vs control): no significant reduction in testosterone levels | condition of the Leydig cells (histology of the testes) [5, 14]: no difference in the condition of the Leydig cells | condition of the sex cells (histology of the testes) [5, 14]: significant change in the condition of the sex cells | Testosterone ng/ml serum [6, 15]: 6.79 ± 1.34 ng/mL | Epididymis weight [6, 15]: 0.90 ± 0.02 gm | Prostate weight [6, 15]: 0.42 ± 0.04 gm | Seminal Vesicles weight [6, 15]: 0.72 ± 0.04 gm | Testes weight [6, 15]: 2.94 ± 0.03 gm | Testosterone ng/ml serum [6, 16]: 6.87 ± 0.58 ng/mL | Epididymis weight [6, 16]: 0.90 ± 0.02 gm | Prostate weight [6, 16]: 0.46 ± 0.03 gm | Seminal Vesicles weight [6, 16]: 0.74 ± 0.04 gm | Testes weight [6, 16]: 3.05 ± 0.07 gm | Testosterone ng/ml serum [6, 17]: 6.30 ± 0.68 ng/mL | Epididymis weight [6, 17]: 0.88 ± 0.04 gm | Prostate weight [6, 17]: 0.41 ± 0.02 gm | Seminal Vesicles weight [6, 17]: 0.89 ± 0.07 gm | Testes weight [6, 17]: 2.74 ± 0.13 gm | histological changes in the sex organs [6, 18]: no histological changes were observed in the sex organs | testosterone level [6, 18]: testosterone level was not changed | weight of the testes, epididymis, prostate or seminal vesicles [6, 18]: no significant reduction in the weight of the testes, epididymis, prostate or seminal vesicles | impregnation of females in heat ([6]; treated intraperitoneally, mated with females in heat): impregnated the females | BODY WEIGHT Final (purebred Angus bulls): 910 | % Fat (purebred Angus bulls): 20.9% | % Protein (purebred Angus bulls): 17.9% | Rate of Gain (purebred Angus bulls): 1.54 lbs/day | rate of gain vs surgically castrated animals (purebred Angus bulls): faster rate of gain than the surgically castrated animals
